In BindingDB's records for patent WO2022101377 (Boehringer Ingelheim International, 2022) one finds IC50 data, which are given here for 11 compounds.

A value given as a limit tells only on which side of the number the result lay.

Platelet-activating factor receptor, sequence (P25105 whole entry): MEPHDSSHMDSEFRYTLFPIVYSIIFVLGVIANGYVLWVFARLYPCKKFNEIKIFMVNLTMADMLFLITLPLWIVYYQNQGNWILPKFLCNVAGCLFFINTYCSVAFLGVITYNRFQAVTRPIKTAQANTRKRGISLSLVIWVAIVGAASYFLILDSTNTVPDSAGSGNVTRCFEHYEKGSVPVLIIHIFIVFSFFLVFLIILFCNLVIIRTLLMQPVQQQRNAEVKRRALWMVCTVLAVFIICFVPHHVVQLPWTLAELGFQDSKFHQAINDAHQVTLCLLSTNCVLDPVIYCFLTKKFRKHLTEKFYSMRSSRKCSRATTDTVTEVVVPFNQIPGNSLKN

This assay concerns the target Platelet-activating factor receptor (Homo sapiens, UniProt P25105). Nature of the assay: EVALUATION OF THE INHIBITION OF PAFR ACTIVATION
The method, then:
USING AN ENDPOINT ASSAY HEK293 cells overexpressing human PAFR (produced in-house) are seeded into a Poly-D-Lysine coated 384 well white cell culture microtiter assay plate with lid (15.000 cells per well). Subsequently, the plates are incubated over night at 37 °C/5% CO2. On the next day, cells are being washed and subsequently, various concentrations of the test compounds (compounds in 100% DMSO; final concentratrion of DMSO in wells is 1%) are added to the assay plate via Echo 555 acoustic liquid handler. Plates are then incubated with lid for 90 minutes at 37 °C/5% CO2. Thereafter, PAF ligand (Cayman Chemical Company, Item no.: 60900) is added at a final concentration of 11 nM. Plates are then incubated with lid for 60 minutes at 37 °C/5% CO2. Then, 5 µl per well of Anti-IP1-Antibody-Cryptate solution and 5 µL per well of IP1-d2 solution are added to all wells of the plate and the plate is incubated for another 60 minutes light protected at room temperature. The emissions at 620 nm and 665 nm (Excitation wavelength: 320 nm) are measured using an Envision Reader (PerkinElmer).
With `Cc1nnc2n1-c1sc3c(c1C(c1ccccc1C1CC1)NC2)CC(C(=O)N1CCOCC1)C3` (stereo unspecified) [WO2022101377, Example 59], the IC50 (commonly the concentration that gives 50% inhibition) was more than 322 nM.
Under `Cc1nnc2n1-c1sc3c(c1C(c1ccccc1CO)NC2)CC(C(=O)N1CCOCC1)C3` (stereo unspecified) [WO2022101377, Example 60] stands more than 322 nM; under `Cc1nnc2n1-c1sc3c(c1C(c1ccccc1)NC2)CC(C(=O)N1CCOCC1)C3` (stereo unspecified) [WO2022101377, Example 74], 102 nM; under `Cc1ccccc1[C@H]1NCc2nnc(C)n2-c2sc3c(c21)C[C@H](C(=O)N1CCOCC1)C3` [WO2022101377, Example 63], more than 568 nM.
In turn, `CSc1ccccc1C1NCc2nnc(C)n2-c2sc3c(c21)CC(C(=O)N1CCOCC1)C3` (stereo unspecified) [WO2022101377, Example 79] showed an IC50 of 235 nM.
Under `Cc1nnc2n1-c1sc3c(c1C(c1ccccc1C(F)(F)F)NC2)CC(C(=O)N1CCOCC1)C3` (stereo unspecified) [WO2022101377, Example 56] stands more than 322 nM; under `CCCc1nnc2n1-c1sc3c(c1C(c1ccccc1Cl)NC2)CC(C(=O)N1CCOCC1)C3` (stereo unspecified) [WO2022101377, Example 80], 110 nM.
Under `Cc1nnc2n1-c1sc3c(c1C(c1ccccc1Cl)NC2)C[C@H](C(=O)N1CCCC2(CC2)C1)C3` (stereo partly specified) [WO2022101377, Example 66] stands 2.7 nM.
In turn, `Cc1nnc2n1-c1sc3c(c1C(c1cc(F)cc(F)c1)NC2)CC(C(=O)N1CCOCC1)C3` (stereo unspecified) [WO2022101377, Example 58] registered an IC50 of more than 322 nM.
`Cc1nnc2n1-c1sc3c(c1C(c1ccccc1O)NC2)CC(C(=O)N1CCOCC1)C3` (stereo unspecified) [WO2022101377, Example 61] displayed an IC50 of more than 322 nM.
Under `COc1ccccc1C1NCc2nnc(C)n2-c2sc3c(c21)CC(C(=O)N1CCOCC1)C3` (stereo unspecified) [WO2022101377, Example 54] stands more than 322 nM.
